Key:
Assay in all cases: KINOMEscan kinase binding assay
[1] = biological target: T1, 384 kinases from the human genome (Homo sapiens, UniProt O00141); conditions: kinase SGK (Entrez SGK1)
T1 construct: purchased Eurofin/DiscoverX
Method in brief: (§1)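 Competition binding (KINOMEscan) across 384 human kinases with compound at 10 µM. Ligand binding was expressed relative to DMSO (100%) as the average of duplicates from one experiment. S(10) selectivity score was derived.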

[2] = biological target: T2, 384 kinases from the human genome (Homo sapiens, UniProt O14757); conditions: kinase CHEK1 (Entrez CHEK1)
T2 construct: purchased Eurofin/DiscoverX
Method in brief: as §1

[3] = biological target: T3, 384 kinases from the human genome (Homo sapiens, UniProt O15111); conditions: kinase IKK-alpha (Entrez CHUK)
T3 construct: purchased Eurofin/DiscoverX
Method in brief: as §1

[4] = biological target: T4, 384 kinases from the human genome (Homo sapiens, UniProt O75116); conditions: kinase ROCK2 (Entrez ROCK2)
T4 construct: purchased Eurofin/DiscoverX
Method in brief: as §1

[5] = biological target: T5, 384 kinases from the human genome (Homo sapiens, UniProt P06241); conditions: kinase FYN (Entrez FYN)
T5 construct: purchased Eurofin/DiscoverX
Method in brief: as §1

[6] = biological target: T6, 384 kinases from the human genome (Homo sapiens, UniProt P07332); conditions: kinase FES (Entrez FES)
T6 construct: purchased Eurofin/DiscoverX
Method in brief: as §1

[7] = biological target: T7, 384 kinases from the human genome (Homo sapiens, UniProt P08581); conditions: kinase MET (Entrez MET)
T7 construct: purchased Eurofin/DiscoverX
Method in brief: as §1

[8] = biological target: T8, 384 kinases from the human genome (Homo sapiens, UniProt P0C1S8); conditions: kinase WEE2 (Entrez WEE2)
T8 construct: purchased Eurofin/DiscoverX
Method in brief: as §1

[9] = biological target: T9, 384 kinases from the human genome (Homo sapiens, UniProt P28482); conditions: kinase ERK2 (Entrez MAPK1)
T9 construct: purchased Eurofin/DiscoverX
Method in brief: as §1

[10] = biological target: T10, 384 kinases from the human genome (Homo sapiens, UniProt P37173); conditions: kinase TGFBR2 (Entrez TGFBR2)
T10 construct: purchased Eurofin/DiscoverX
Method in brief: as §1

[11] = biological target: T11, 384 kinases from the human genome (Homo sapiens, UniProt Q06418); conditions: kinase TYRO3 (Entrez TYRO3)
T11 construct: purchased Eurofin/DiscoverX
Method in brief: as §1

[12] = biological target: T12, 384 kinases from the human genome (Homo sapiens, UniProt Q12852); conditions: kinase DLK (Entrez MAP3K12)
T12 construct: purchased Eurofin/DiscoverX
Method in brief: as §1

[13] = biological target: T13, 384 kinases from the human genome (Homo sapiens, UniProt Q13043); conditions: kinase MST1 (Entrez STK4)
T13 construct: purchased Eurofin/DiscoverX
Method in brief: as §1

[14] = biological target: T14, 384 kinases from the human genome (Homo sapiens, UniProt Q13237); conditions: kinase PRKG2 (Entrez PRKG2)
T14 construct: purchased Eurofin/DiscoverX
Method in brief: as §1

[15] = biological target: T15, 384 kinases from the human genome (Homo sapiens, UniProt Q13555); conditions: kinase CAMK2G (Entrez CAMK2G)
T15 construct: purchased Eurofin/DiscoverX
Method in brief: as §1

[16] = biological target: T16, 384 kinases from the human genome (Homo sapiens, UniProt Q15746); conditions: kinase MYLK (Entrez MYLK)
T16 construct: purchased Eurofin/DiscoverX
Method in brief: as §1

[17] = biological target: T17, 384 kinases from the human genome (Homo sapiens, UniProt Q16288); conditions: kinase TRKC (Entrez NTRK3)
T17 construct: purchased Eurofin/DiscoverX
Method in brief: as §1

[18] = biological target: T18, 384 kinases from the human genome (Homo sapiens, UniProt Q5S007); conditions: kinase LRRK2 (Entrez LRRK2)
T18 construct: purchased Eurofin/DiscoverX
Method in brief: as §1

[19] = biological target: T19, 384 kinases from the human genome (Homo sapiens, UniProt Q6P3R8); conditions: kinase NEK5 (Entrez NEK5)
T19 construct: purchased Eurofin/DiscoverX
Method in brief: as §1

[20] = biological target: T20, 384 kinases from the human genome (Homo sapiens, UniProt Q86V86); conditions: kinase PIM3 (Entrez PIM3)
T20 construct: purchased Eurofin/DiscoverX
Method in brief: as §1

[21] = biological target: T21, 384 kinases from the human genome (Homo sapiens, UniProt Q8IWQ3); conditions: kinase BRSK2 (Entrez BRSK2)
T21 construct: purchased Eurofin/DiscoverX
Method in brief: as §1

[22] = biological target: T22, 384 kinases from the human genome (Homo sapiens, UniProt Q8TDC3); conditions: kinase BRSK1 (Entrez BRSK1)
T22 construct: purchased Eurofin/DiscoverX
Method in brief: as §1

[23] = biological target: T23, 384 kinases from the human genome (Homo sapiens, UniProt Q92630); conditions: kinase DYRK2 (Entrez DYRK2)
T23 construct: purchased Eurofin/DiscoverX
Method in brief: as §1

[24] = biological target: T24, 384 kinases from the human genome (Homo sapiens, UniProt Q9BWU1); conditions: kinase CDK11 (Entrez CDK19)
T24 construct: purchased Eurofin/DiscoverX
Method in brief: as §1

[25] = biological target: T25, 384 kinases from the human genome (Homo sapiens, UniProt Q9P1W9); conditions: kinase PIM2 (Entrez PIM2)
T25 construct: purchased Eurofin/DiscoverX
Method in brief: as §1

[26] = biological target: T26, 384 kinases from the human genome (Homo sapiens, UniProt Q9UPZ9); conditions: kinase ICK (Entrez ICK)
T26 construct: purchased Eurofin/DiscoverX
Method in brief: as §1

[27] = biological target: T27, 384 kinases from the human genome (Homo sapiens, UniProt Q9Y6R4); conditions: kinase MAP3K4 (Entrez MAP3K4)
T27 construct: purchased Eurofin/DiscoverX
Method in brief: as §1

T2 sequence (O14757 whole entry): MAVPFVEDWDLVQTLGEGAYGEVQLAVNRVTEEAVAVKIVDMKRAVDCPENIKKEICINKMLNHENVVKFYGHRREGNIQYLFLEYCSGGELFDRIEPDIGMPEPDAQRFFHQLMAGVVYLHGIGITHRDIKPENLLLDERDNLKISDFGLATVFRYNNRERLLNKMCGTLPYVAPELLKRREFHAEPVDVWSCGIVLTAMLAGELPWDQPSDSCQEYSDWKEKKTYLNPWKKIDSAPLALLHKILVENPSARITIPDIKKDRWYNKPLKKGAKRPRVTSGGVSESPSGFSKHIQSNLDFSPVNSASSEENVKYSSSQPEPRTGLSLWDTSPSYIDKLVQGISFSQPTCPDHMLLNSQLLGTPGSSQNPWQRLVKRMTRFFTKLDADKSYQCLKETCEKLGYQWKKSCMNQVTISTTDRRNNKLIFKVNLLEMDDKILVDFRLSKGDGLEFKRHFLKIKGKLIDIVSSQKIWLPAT
T1 sequence (O00141 whole entry): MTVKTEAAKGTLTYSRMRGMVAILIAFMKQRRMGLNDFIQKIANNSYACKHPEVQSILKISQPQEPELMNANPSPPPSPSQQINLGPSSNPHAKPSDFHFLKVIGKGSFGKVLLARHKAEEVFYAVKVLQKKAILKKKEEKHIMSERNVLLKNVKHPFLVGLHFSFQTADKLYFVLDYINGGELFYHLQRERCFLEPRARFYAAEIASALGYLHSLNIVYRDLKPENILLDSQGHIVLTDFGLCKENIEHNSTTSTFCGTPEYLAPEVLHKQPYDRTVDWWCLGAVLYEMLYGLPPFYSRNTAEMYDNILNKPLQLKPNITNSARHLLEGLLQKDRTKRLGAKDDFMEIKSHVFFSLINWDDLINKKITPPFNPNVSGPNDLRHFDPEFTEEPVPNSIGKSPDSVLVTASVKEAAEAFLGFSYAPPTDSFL
T11 sequence (Q06418 41-890): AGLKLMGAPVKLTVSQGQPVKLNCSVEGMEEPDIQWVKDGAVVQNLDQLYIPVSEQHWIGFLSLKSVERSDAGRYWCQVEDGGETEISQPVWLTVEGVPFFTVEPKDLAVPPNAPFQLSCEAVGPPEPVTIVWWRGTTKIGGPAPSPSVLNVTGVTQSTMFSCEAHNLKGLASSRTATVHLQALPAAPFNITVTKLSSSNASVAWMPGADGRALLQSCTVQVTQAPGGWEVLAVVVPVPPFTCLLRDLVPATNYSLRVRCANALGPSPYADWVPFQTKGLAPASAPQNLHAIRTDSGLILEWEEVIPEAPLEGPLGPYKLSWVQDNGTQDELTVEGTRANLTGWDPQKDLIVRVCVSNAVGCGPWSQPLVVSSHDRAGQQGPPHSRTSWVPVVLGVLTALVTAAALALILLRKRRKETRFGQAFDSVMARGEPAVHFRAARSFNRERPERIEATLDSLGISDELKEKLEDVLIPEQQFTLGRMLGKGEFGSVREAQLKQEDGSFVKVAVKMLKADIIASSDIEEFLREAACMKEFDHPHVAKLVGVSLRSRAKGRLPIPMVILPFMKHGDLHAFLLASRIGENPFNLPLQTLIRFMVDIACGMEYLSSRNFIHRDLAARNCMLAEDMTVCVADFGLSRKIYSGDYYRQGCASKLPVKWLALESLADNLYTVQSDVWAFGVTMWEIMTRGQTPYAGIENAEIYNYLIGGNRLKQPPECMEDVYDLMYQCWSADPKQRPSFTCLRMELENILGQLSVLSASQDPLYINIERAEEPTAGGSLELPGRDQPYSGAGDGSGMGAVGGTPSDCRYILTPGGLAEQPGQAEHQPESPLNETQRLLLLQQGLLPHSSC
T10 sequence (P37173 23-567): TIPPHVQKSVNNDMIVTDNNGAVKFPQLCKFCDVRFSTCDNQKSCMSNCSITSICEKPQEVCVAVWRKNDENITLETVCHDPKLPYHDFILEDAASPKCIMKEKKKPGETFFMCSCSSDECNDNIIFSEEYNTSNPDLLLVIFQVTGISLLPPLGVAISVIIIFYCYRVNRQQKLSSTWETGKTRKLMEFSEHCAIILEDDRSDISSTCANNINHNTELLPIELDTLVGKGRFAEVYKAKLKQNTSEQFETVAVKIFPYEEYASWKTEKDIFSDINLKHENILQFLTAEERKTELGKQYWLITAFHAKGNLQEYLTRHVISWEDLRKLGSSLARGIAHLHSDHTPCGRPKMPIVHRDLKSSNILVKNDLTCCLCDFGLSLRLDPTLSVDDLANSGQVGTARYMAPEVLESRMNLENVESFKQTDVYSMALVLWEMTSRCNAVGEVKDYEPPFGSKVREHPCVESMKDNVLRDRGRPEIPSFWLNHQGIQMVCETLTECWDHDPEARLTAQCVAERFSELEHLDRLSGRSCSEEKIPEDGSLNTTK
T22 sequence (Q8TDC3 whole entry): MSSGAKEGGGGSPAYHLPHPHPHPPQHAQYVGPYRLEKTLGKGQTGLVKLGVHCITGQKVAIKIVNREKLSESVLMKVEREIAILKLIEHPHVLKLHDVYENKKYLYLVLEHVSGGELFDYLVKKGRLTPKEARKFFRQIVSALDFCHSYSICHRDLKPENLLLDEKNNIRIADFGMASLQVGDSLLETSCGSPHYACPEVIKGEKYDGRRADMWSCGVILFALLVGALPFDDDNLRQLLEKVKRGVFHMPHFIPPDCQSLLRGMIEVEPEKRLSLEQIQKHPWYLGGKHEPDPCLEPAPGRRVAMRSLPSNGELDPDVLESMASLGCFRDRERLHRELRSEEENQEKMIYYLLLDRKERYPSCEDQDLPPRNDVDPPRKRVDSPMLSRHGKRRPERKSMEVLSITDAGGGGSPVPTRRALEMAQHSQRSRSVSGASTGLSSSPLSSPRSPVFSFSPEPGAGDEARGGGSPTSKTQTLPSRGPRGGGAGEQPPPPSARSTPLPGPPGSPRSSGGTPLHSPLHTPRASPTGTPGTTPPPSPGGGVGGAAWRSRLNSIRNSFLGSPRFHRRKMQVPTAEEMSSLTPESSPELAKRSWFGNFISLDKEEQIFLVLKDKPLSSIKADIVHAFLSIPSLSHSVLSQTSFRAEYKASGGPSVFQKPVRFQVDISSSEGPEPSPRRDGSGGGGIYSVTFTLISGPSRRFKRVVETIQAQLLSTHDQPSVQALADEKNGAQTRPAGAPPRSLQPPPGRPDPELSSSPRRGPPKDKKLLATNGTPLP
T9 sequence (P28482 whole entry): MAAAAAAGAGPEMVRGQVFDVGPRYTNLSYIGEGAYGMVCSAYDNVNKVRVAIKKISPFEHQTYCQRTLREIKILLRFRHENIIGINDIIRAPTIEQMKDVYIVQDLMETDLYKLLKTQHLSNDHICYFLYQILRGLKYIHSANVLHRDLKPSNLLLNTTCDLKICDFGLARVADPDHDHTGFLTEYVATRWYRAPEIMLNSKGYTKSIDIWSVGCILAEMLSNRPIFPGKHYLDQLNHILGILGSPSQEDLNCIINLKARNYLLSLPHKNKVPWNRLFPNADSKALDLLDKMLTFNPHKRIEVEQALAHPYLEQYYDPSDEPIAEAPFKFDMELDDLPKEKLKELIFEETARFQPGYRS
T21 sequence (Q8IWQ3 whole entry): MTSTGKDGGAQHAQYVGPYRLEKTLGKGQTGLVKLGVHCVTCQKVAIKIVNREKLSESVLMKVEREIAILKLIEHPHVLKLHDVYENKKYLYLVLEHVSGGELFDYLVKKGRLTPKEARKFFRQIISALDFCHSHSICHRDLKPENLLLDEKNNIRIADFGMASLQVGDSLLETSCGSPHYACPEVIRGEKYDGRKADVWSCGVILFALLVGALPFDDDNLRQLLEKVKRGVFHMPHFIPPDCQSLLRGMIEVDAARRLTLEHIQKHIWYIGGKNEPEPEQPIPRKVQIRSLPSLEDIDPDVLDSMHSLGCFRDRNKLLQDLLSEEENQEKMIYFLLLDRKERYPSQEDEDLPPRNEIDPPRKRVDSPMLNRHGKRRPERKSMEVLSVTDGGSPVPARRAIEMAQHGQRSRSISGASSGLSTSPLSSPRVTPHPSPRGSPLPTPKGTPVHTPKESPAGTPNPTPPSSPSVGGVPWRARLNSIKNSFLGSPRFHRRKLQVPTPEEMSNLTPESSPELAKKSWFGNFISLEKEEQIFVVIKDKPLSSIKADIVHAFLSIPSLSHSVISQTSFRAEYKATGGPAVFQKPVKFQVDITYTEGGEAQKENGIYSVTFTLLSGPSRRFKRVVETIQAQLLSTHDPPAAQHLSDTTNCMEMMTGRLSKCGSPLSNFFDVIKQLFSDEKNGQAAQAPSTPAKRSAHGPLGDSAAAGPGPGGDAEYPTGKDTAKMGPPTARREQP
T12 sequence (Q12852 whole entry): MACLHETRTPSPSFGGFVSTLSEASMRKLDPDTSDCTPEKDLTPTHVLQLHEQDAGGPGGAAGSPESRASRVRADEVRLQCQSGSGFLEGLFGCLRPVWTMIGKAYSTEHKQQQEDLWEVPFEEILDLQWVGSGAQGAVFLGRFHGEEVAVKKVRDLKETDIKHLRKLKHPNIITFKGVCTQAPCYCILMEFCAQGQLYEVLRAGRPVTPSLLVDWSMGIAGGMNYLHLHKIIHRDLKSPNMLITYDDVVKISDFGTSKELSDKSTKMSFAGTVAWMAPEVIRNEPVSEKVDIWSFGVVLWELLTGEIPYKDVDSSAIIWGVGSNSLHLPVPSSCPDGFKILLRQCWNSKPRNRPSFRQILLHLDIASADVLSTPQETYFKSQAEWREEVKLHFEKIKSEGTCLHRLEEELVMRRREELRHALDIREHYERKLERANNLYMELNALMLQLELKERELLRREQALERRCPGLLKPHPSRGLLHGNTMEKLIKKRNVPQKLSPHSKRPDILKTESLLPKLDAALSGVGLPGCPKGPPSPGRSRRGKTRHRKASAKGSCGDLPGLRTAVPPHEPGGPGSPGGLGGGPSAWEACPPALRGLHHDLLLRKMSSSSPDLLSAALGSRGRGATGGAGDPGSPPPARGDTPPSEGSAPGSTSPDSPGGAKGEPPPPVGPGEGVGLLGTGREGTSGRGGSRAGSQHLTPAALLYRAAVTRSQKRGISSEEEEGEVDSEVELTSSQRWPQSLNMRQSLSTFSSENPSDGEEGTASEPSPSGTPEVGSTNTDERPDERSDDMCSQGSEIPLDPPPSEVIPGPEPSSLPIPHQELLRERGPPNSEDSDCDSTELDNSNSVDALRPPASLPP

CC(C)C(=O)N1CCN(c2ccc(NC(=O)c3cc4ccccc4o3)cc2Cl)CC1 [Compound 21]
Percent Control [1]: 100%
Percent Control [2]: 92%
Percent Control [3]: 100%
Percent Control [4]: 80%
Percent Control [5]: 67%
Percent Control [6]: 73%
Percent Control [7]: 91%
Percent Control [8]: 100%
Percent Control [9]: 97%
Percent Control [10]: 99%
Percent Control [11]: 58%
Percent Control [12]: 100%
Percent Control [13]: 97%
Percent Control [14]: 92%
Percent Control [15]: 98%
Percent Control [16]: 93%
Percent Control [17]: 24%
Percent Control [18]: 89%
Percent Control [19]: 74%
Percent Control [20]: 90%
Percent Control [21]: 97%
Percent Control [22]: 99%
Percent Control [23]: 94%
Percent Control [24]: 100%
Percent Control [25]: 100%
Percent Control [26]: 81%
Percent Control [27]: 73%

— PMC8333425, “Discovery of a dual Ras and ARF6 inhibitor from a GPCR endocytosis screen” (Nature Communications, 2021)
